In a melting point compilation (Tetko et al.; mined from patent text by program, amines drawn as free bases though some values may be those of a salt):

| SMILES | melting point [°C] |
| --- | --- |
| CS(=O)(=O)Nc1ccc(/C=C\COCCCCCCO)cc1 | 65 to 67 |
| COc1ccc(C(=O)Nc2ccccc2)cc1NC(=S)Nc1cccnc1 | 178 to 179 |
| CCOC(=O)C1CCCCC1(c1ccc(O)c(C(C)(C)C)c1)c1ccc(O)c(C(C)(C)C)c1 (stereo not given) | 86 |
| COc1ccc(Oc2nc(Nc3cccc(C(=O)O)c3)nc(Oc3ccc(C=O)cc3OC)n2)cc1 | 180 to 182 |
| C[C@H](c1ccccc1CCn1cncn1)N(c1cc(F)ccc1F)S(=O)(=O)c1ccc(Cl)cc1 | 116 to 118 |
| COC(=O)N1CCCc2onc(OC)c2C1 | 68 to 70 |
| COC(=O)c1cc(C(=O)c2cc(C(=O)OC)c(OC)c([N+](=O)[O-])c2)cc([N+](=O)[O-])c1OC | 96 to 98 |
| COc1ccc(C(=O)Nc2cccnc2)cc1N | 193 to 196 |
| CCC(=O)N1CCC(NC(=O)Nc2ccc(C(=O)O)cc2)CC1 | 201 to 204 |
| COc1ccc(/C=C/c2ccncc2)c2c1OC(C)(C)C2 | 110 to 113 |
| Cc1cc2c(cc1C)CCC(C(=O)O)=C2 | 222 to 223 |
| CC(C)Nc1c([N+](=O)[O-])cnn1-c1ncc(Cl)cc1Cl | 123 |
| CCCCc1nn(-c2cc(NC(C)=O)ccc2Cl)c(=O)n1Cc1ccc(-c2cc(CCC)ccc2S(=O)(=O)NC(=O)OC(C)(C)C)cc1F | < 130 |
| CCCCCCCCCCCCCCCCCCOc1cc(O)cc(C(=O)OC)c1 | 93 to 94 |
| COc1ccc(Oc2ccc(C(=O)N(C(C)C)C3CCCCC3)cc2)cc1 | 81.7 |
| O=C(O)c1ccc(Cl)c(S(=O)(=O)c2ccccc2[N+](=O)[O-])c1 | 242 to 246 |
| CCOC(=O)c1cc(C(=O)NC)nc(C(=O)NC)c1NC | 169 to 170 |
| COc1cc(OC)c(C(=O)/C=C/C(=O)O)c(OC)c1 | 151 to 153 |
| C=CC(C)c1cc(C)c2c(c1O)C(N(C)C=O)C1CCCCC21 (stereo not given) | 158 to 159 |
| COc1cc(/C=C/C(=O)c2ccc(C(=O)O)cc2)cc(-c2cccs2)c1OC | 231 |
| CCCc1c(OCC=CS(=O)(=O)c2ccc(CC(=O)O)c(F)c2)ccc(C(C)=O)c1O | 249 to 251 |
| CC(C)(C)OC(=O)Nc1ccc(Cl)nc1 | 126 to 127 |

| SMILES | melting point [°C] |
| --- | --- |
| Cn1ncc2c1-c1c(Oc3ccc(CC(=O)O)cc3)sc(C(N)=O)c1CC2 | 213 to 214 |
| Cc1occc1Sc1cncc2sc(C(N)=O)cc12 | 236 to 239 |
| CCc1nc2c(n1Cc1ccc(-c3ccccc3)cc1)C(=O)N(C)CN2c1ccc(Cl)cc1Cl | 216 to 217 |
| Cc1c(I)c(=O)n(C2CCCC2)c2nc(Nc3ccc(N4CCNCC4)cn3)ncc12 | > 240 |
| COc1ccc(N2c3ccccc3S(=O)(=O)c3ccccc32)cc1 | 265 to 266 |
| Fc1cccc(-c2ccc(Cl)nn2)c1 | 133 to 135 |
| CCCC[C@H]1[C@@H](O)CC[C@@]2(C)CC[C@@H]3C[C@]12OC3(C)C | 47 to 48 |
| COc1cc2c(Nc3ccc(C)c(OC(C)=O)c3)ncnc2cc1OCc1cccnc1 | 113 to 115 |
| CCOCCCc1ccc(Oc2ccc3c(c2)C=C(C(=O)OC)CCS3(=O)=O)cc1 | 93 to 94 |
| COc1cc(Cn2c(=S)sc3ccccc32)cc(OC)c1O | 141 to 142 |
| COC(=O)c1cc2nc(C)[nH]c2cc1C(=O)OC | 151 to 152 |
| CC(=O)Nc1ccc(OC(F)(F)C(F)F)cc1 | 121 to 122 |
| CCCC1=C(C#N)C(c2ccccc2C)c2c[nH]nc2N1 (stereo not given) | 230 |
| CSc1ccc(N2CCc3ccccc32)c([N+](=O)[O-])c1 | 67 to 69 |
| CC(C)(Cc1c(C(=O)c2ccccc2)c2cc(OCc3ccc4ccccc4n3)ccc2n1Cc1ccc(Cl)cc1)C(=O)O | 165 to 166 |
| O=C(O)c1ccc(CN2Cc3ccccc3Cc3ccccc32)cc1 | 198 |
| CC(C)C1(C#N)c2ccccc2C=CN1C(=O)c1ccccc1 (stereo not given) | 124 to 126 |
| COCCN1CSC(=Cc2cc(C(C)(C)C)c(O)c(C(C)(C)C)c2)C1=O | 147 to 149 |
| Cc1cccc2c1C(=O)NS2(=O)=O | 224 to 226 |
| Cc1cc(C)nc(NC(=O)Cc2ccsc2Br)c1 | 72 |
| N#Cc1cc(OCF)cc([N+](=O)[O-])c1Cl | 27 to 28 |
| CCOC(=O)c1cnn(C)c1NC(=O)Nc1ccccc1 | 151 to 153 |

| SMILES | melting point [°C] |
| --- | --- |
| O=c1c2cccc3ncc(c(=O)n1CCCCNS(=O)(=O)C(F)(F)F)n32 | 206 to 207 |
| O=C(CCN1CCN(c2ncc(F)cn2)CC1)Cc1cccs1 | 77 to 78 |
| COc1ccc2cc(Br)ccc2n1 | 93 to 96 |
| CN1CCC=C(c2nc(NC=O)sc2Cl)C1 | 193 |
| CC1(C)CCC(S)(CCOC(=O)CCC(=O)O)CC1 | 55 to 60 |
| CN1C(=O)N(C)C(O)C1O (stereo not given) | 140 |
| CCCc1nc(C(C)(C)O)c(C(=O)OCC)n1Cc1ccc(-c2ccccc2C#N)cc1 | 92 to 93 |
| O=C(NCCCN1NC=NN1)c1ccccc1[N+](=O)[O-] | 148 to 150 |
| CN(C)c1ccc(C(=O)N2CCC(Nc3nc(Nc4cccc(C(F)(F)F)c4)nc(OCC(F)(F)F)n3)CC2)cc1 | 123 to 125 |
| COc1ccccc1N1CCN(CCNC(=O)CCN2CCC(c3c[nH]c4cc(F)ccc34)CC2)CC1 | 68 to 70 |
| COC1(c2csc(Sc3ccc(/C(C)=N/O)cn3)c2)CCOCC1 | 151 to 153 |
| CC1(C)CCC(C)(C)c2cc(-c3cc(-c4ccc(C(=O)O)cc4)ccc3OCCCNC3CC3)ccc21 | 192 |
| CCNC(=O)Nc1nc2cc(-c3cnc(OC)nc3)ccn2n1 | 243 to 248 |
| CCCNC(=O)c1nc(-c2ccccc2)c(-c2ccc(=O)n(CCC)n2)s1 | 121 to 122 |
| COC(=O)CCCC#Cc1cc(C)c2oc(=O)n(C)c2c1 | 97 to 98 |
| COCC1(C)Oc2ccccc2C(n2ccccc2=O)C1O (stereo not given) | 244 to 246 |
| Cc1ccc2[nH]c3c(c2c1)C(=O)CCC3 | > 255 |
| Cc1ccc(NC(=O)c2ccc(CN(C)C)c(C(F)(F)F)c2)cc1-c1ccc2ccncc2c1 | 169 to 172 |
| Nc1ccc(CC(=O)O)cc1Br | 139 to 140 |
| Cn1ccc2c1CCn1ccnc1C2=C1CCN(CCNc2ncccn2)CC1 | 202 |
| O=C(NCCc1cccs1)C1CC2C=CC1C2 (stereo not given) | 71 to 72 |

Results, then the compound that gave them:

| melting point [°C] | SMILES |
| --- | --- |
| 158 to 159 | CCOC(=O)c1c(C)cc2nc(COC(N)=O)n(-c3ccccc3C(F)(F)F)c(=O)c2c1C |
| 89 to 92 | Fc1c(F)c(F)c(CSc2ncccn2)c(F)c1F |
| 71 to 72 | N[C@@H](Cc1ccccc1)C(c1ccccc1)c1ccccc1 |
| 215 to 219 | N#Cc1cnn(-c2ccc(Cl)c(Cl)c2Cl)c1C=CC(=O)O |
| 170 to 171 | CC(C)(C)OC(=O)CNC(=O)OCC1c2c(c3ccccc3c3ccccc23)-c2c1c1ccccc1c1ccccc21 |
| 163 to 164 | CNC(=O)Cc1c(F)cccc1F |
| 190 to 191 | CCOC(=O)c1nc(-c2ccc(C(C)(C)C)cc2)[nH]c1-c1ccc([N+](=O)[O-])cc1 |
| 215 to 217 | O=C1CC2CCSc3sccc3C2=NN1 (stereo not given) |
| 225 to 232 | Cc1cccc(C)c1N1CCN(CCNc2c(Cl)cnn(C)c2=O)CC1 |
| 80 to 81 | CC(C)N1c2ccccc2N(C(C)C)c2ccccc21 |
| 110 | CCCCCCCCC1(CCCCCCCC)c2cc(O)ccc2-c2ccc(Br)cc21 |
| 62.5 to 63.5 | COCOc1ccc(C=CC(=O)c2c(OCOC)cc(OCOC)c(CC=C(C)C)c2O)cc1OC |
| 172 to 174 | CON=Cc1cc(-n2c(=S)cc(C(F)(F)F)n(N)c2=O)c(F)cc1Cl |
| 128 to 130 | CCOC(Cc1c(N(C(C)=O)C(C)=O)nc(NC(C)=O)[nH]c1=O)OCC |
| 111 to 116 | O=C(CC1CCCC1)Nc1ccc2cccc(OS(=O)(=O)C(F)(F)F)c2c1 |
| 102 to 108 | c1ccc2c(c1)Oc1ccncc1O2 |
| 203 | O=C(c1ccc(F)cc1)C1CCN(CCN2CNc3ccccc3C2=O)CC1 |
| 57 to 76 | C[C@H](NC(=O)C[C@H](O)C[C@H](O)/C=C/c1c(C2CC2)nc2ccccc2c1-c1ccc(F)cc1)c1ccccc1 |

| melting point [°C] | SMILES |
| --- | --- |
| 98 to 100 | CC(C)C(OCc1ccccc1)[C@H]1[C@H]([N+](=O)[O-])[C@H](c2cccnc2)N[C@@H]1C(=O)NCCC(=O)O (stereo not given in full) |
| 175 to 176 | COc1cccc(C=CC(=O)C2C(=O)OC(=O)C(C(C)=O)=C2O)c1OC (stereo not given) |
| 207 to 209 | Cc1cccc(NC(=O)NC2CN(C(=O)C3CC3)c3ccccc3N(CC(=O)c3ccccc3C)C2=O)c1 (stereo not given) |
| 181 to 185 | CN(C)CCc1[nH]c2ccccc2c1CC(C#N)(c1ccccc1)c1ccccc1 |
| 143 to 146 | CCOC(=O)c1c(Cl)nn(-c2c(Cl)cc(C(F)(F)F)cc2Cl)c1N |
| 225 to 228 | CCCOc1ccc(S(=O)(=O)N2CCN(C)CC2)cc1-c1nc2cc(Cl)c([N+](=O)[O-])cc2c(=O)[nH]1 |
| 206 to 210 | O=c1oc(Nc2ccc(Oc3ccccc3)cc2)nc2sccc12 |
| 108 to 111 | COc1ccc(C(=O)Cc2cc(OC)ccc2OC)cc1 |
| 132 to 134 | Cc1cc(CC(=O)O)n(C)c1C(=O)c1ccc2n1CCC2 |
| 180 | CCCc1nc(SC)c(C(O)(C(=O)O)C(C)C)n1Cc1ccc(-c2ccccc2S(=O)(=O)NC(=O)NCc2ccccc2)cc1 (stereo not given) |
| 111 to 112 | COC(=O)C(=O)c1cc2ccccc2n1S(=O)(=O)c1ccccc1 |
| 192 to 197 | CC(CS)C(=O)N1CC(Oc2ccc(CC3Nc4cc(Cl)c(S(N)(=O)=O)cc4S(=O)(=O)N3C)cc2)CC1C(=O)O (stereo not given) |
| 227 to 228 | N#Cc1cc(-c2c(C(N)=O)ccn2-c2ccc(F)cc2)ccc1OCC(F)(F)F |
| 254 to 256 | Oc1ccc2oc(-c3ccc(O)c(Cl)c3)nc2c1 |
| 152 to 153 | CCOC(=O)c1cn(Cc2ccc(OCc3nc(-c4ccccc4)oc3C)cc2)nc1O |
| 146 to 149 | CC(C)c1nc(C#N)c(C#N)[nH]1 |
| 168 to 170 | CC(NC(=S)Nc1ccc(Nc2ccccc2)nc1)C(C)(C)C (stereo not given) |
